Source: patent US20210254056A1, “IDENTIFICATION AND TARGETED MODULATION OF GENE SIGNALING NETWORKS” (CAMP4 THERAPEUTICS CORPORATION, priority 2017, published 2021)

System: hepatocytes
Assay: RNA-seq of hepatocytes treated with Phase III failure compounds
Procedure: RNA-seq was performed to determine the effects of the compounds on hepatocytes.
Significance was determined by the criteria of FPKM≥0.5, a log 2(fold-change)≥1, and a […].

Structure (SMILES): CCOC(=O)N1c2ccc(C(F)(F)F)cc2[C@@H](N(Cc2cc(C(F)(F)F)cc(C(F)(F)F)c2)C(=O)OC)C[C@H]1CC [Torcetrapib]
- RNA-seq results, CYP2B6 expression: 0.36
- RNA-seq results, CYP2C19 expression: 0.61
- RNA-seq results, CYP2D6 expression: −0.16
- RNA-seq results, CYP3A4 expression: 1.87
- RNA-seq results, CYP7B1 expression: 0.26
- RNA-seq results, CYP39A1 expression: 0.03
- RNA-seq results: CYP2B6 expression: 0.09
- RNA-seq results: CYP2C19 expression: −0.14
- RNA-seq results: CYP2D6 expression: 0.24
- RNA-seq results: CYP3A4 expression: 0.49
- RNA-seq results: CYP7B1 expression: −0.44
- RNA-seq results: CYP39A1 expression: 0
- significant modulation of expression of disease genes (RNA-seq, q≤0.05, hepatocytes, genes in the value or listed in the block): significantly (q≤0.05) modulate expression of the following genes: ACTG2, CYP3A4, ID1, KMT2D, and UTRN
- RNA-seq results: A1BG expression (gene A1BG, hepatocytes): −0.38
- RNA-seq results: AGTR1 expression (gene AGTR1, hepatocytes): −0.45
- RNA-seq results: AGXT expression (gene AGXT, hepatocytes): −0.25
- RNA-seq results: AHI1 expression (gene AHI1, hepatocytes): 0.19
- RNA-seq results: AMPD3 expression (gene AMPD3, hepatocytes): 0.28
- RNA-seq results: AMT expression (gene AMT, hepatocytes): −0.11
- RNA-seq results: ANGPTL3 expression (gene ANGPTL3, hepatocytes): −0.46
- RNA-seq results: ANKS4B expression (gene ANKS4B, hepatocytes): −0.02
- RNA-seq results: ANKS6 expression (gene ANKS6, hepatocytes): 0.19
- RNA-seq results: ANPEP expression (gene ANPEP, hepatocytes): −0.19
- RNA-seq results: AOC2 expression (gene AOC2, hepatocytes): 0.53
- RNA-seq results: APOA2 expression (gene APOA2, hepatocytes): −0.76
- RNA-seq results: APOA5 expression (gene APOA5, hepatocytes): −0.36
- RNA-seq results: APOB expression (gene APOB, hepatocytes): 0.90
- RNA-seq results: COG5 expression (gene COG5, hepatocytes): 0.24
- RNA-seq results: COG6 expression (gene COG6, hepatocytes): 0.29
- RNA-seq results: COL1A1 expression (gene COL1A1, hepatocytes): −0.43
- RNA-seq results: COX6A1 expression (gene COX6A1, hepatocytes): 0.62
- RNA-seq results: CP expression (gene CP, hepatocytes): −0.27
- RNA-seq results: CPS1 expression (gene CPS1, hepatocytes): −0.75
- RNA-seq results: CPT1A expression (gene CPT1A, hepatocytes): −0.4
- RNA-seq results: CPT2 expression (gene CPT2, hepatocytes): −0.1
- RNA-seq results: CROT expression (gene CROT, hepatocytes): −0.33
- RNA-seq results: CSPP1 expression (gene CSPP1, hepatocytes): 0.17
- RNA-seq results: CTC1 expression (gene CTC1, hepatocytes): −0.2
- RNA-seq results: CTDSP2 expression (gene CTDSP2, hepatocytes): 0.03
- RNA-seq results: CTH expression (gene CTH, hepatocytes): 2.52
- RNA-seq results: CTNS expression (gene CTNS, hepatocytes): −0.12
- RNA-seq results: CTSF expression (gene CTSF, hepatocytes): 0.3
- RNA-seq results: CTSK expression (gene CTSK, hepatocytes): 0
- RNA-seq results: CYB5A expression (gene CYB5A, hepatocytes): 0.21
- RNA-seq results: CYB5R3 expression (gene CYB5R3, hepatocytes): 0.07
- RNA-seq results: CYP27A1 expression (gene CYP27A1, hepatocytes): 0.12
- RNA-seq results: DAO expression (gene DAO, hepatocytes): −0.72
- RNA-seq results: DBT expression (gene DBT, hepatocytes): 0
- RNA-seq results: DCDC2 expression (gene DCDC2, hepatocytes): −0.51
- RNA-seq results: DCXR expression (gene DCXR, hepatocytes): 0.37
- RNA-seq results: FABP1 expression (gene FABP1, hepatocytes): 0.58
- RNA-seq results: FADD expression (gene FADD, hepatocytes): 0.43
- RNA-seq results: FAM111A expression (gene FAM111A, hepatocytes): −0.26
- RNA-seq results: FAM111B expression (gene FAM111B, hepatocytes): −1.74
- RNA-seq results: FAN1 expression (gene FAN1, hepatocytes): 0.14
- RNA-seq results: FARS2 expression (gene FARS2, hepatocytes): 0.06
- RNA-seq results: FASLG expression (gene FASLG, hepatocytes): −1.19
- RNA-seq results: FGA expression (gene FGA, hepatocytes): −0.25
- RNA-seq results: FGD1 expression (gene FGD1, hepatocytes): −0.63
- RNA-seq results: FGFR2 expression (gene FGFR2, hepatocytes): 0.15
- RNA-seq results: FIG4 expression (gene FIG4, hepatocytes): 0
- RNA-seq results: FIS1 expression (gene FIS1, hepatocytes): 0.52
- RNA-seq results: FTCD expression (gene FTCD, hepatocytes): −0.05
- RNA-seq results: FTH1 expression (gene FTH1, hepatocytes): 0.6
- RNA-seq results: FUCA1 expression (gene FUCA1, hepatocytes): 0.01
- RNA-seq results: FXN expression (gene FXN, hepatocytes): −0.17
- RNA-seq results: G6PC3 expression (gene G6PC3, hepatocytes): −0.07
- RNA-seq results: G6PC expression (gene G6PC, hepatocytes): −0.17
- RNA-seq results: G6PD expression (gene G6PD, hepatocytes): −0.05
- RNA-seq results: GALK1 expression (gene GALK1, hepatocytes): 0.4
- RNA-seq results: GALK2 expression (gene GALK2, hepatocytes): 0.22
- RNA-seq results: GALT expression (gene GALT, hepatocytes): −0.21
- RNA-seq results: GATA6 expression (gene GATA6, hepatocytes): 0.17
- RNA-seq results: GATM expression (gene GATM, hepatocytes): −0.33
- RNA-seq results: GBA expression (gene GBA, hepatocytes): −0.07
- RNA-seq results: GBE1 expression (gene GBE1, hepatocytes): 0.39
- RNA-seq results: GCH1 expression (gene GCH1, hepatocytes): 0.23
- RNA-seq results: GCKR expression (gene GCKR, hepatocytes): −0.19
- RNA-seq results: GCLC expression (gene GCLC, hepatocytes): 0.13
- RNA-seq results: GOSH expression (gene GOSH, hepatocytes): 0.22
- RNA-seq results: RRM2B (gene RRM2B, hepatocytes): 0.48
- RNA-seq results: RSAD1 (gene RSAD1, hepatocytes): −0.11
- RNA-seq results: SAMHD1 (gene SAMHD1, hepatocytes): 0.25
- RNA-seq results: SC5D (gene SC5D, hepatocytes): −0.01
- RNA-seq results: SCARB1 (gene SCARB1, hepatocytes): −0.17
- RNA-seq results: SCN9A (gene SCN9A, hepatocytes): 0.25
- RNA-seq results: SDCCAG8 (gene SDCCAG8, hepatocytes): −0.03
- RNA-seq results: SEPN1 (gene SEPN1, hepatocytes): 0.28
- RNA-seq results: SERAC1 (gene SERAC1, hepatocytes): 0.29
- RNA-seq results: SERPINA1 (gene SERPINA1, hepatocytes): −0.19
- RNA-seq results: SERPING1 (gene SERPING1, hepatocytes): −0.11
- RNA-seq results: SERPINI1 (gene SERPINI1, hepatocytes): −0.19
- RNA-seq results: SETBP1 (gene SETBP1, hepatocytes): −0.14
- RNA-seq results: SFXN4 (gene SFXN4, hepatocytes): −0.46
- RNA-seq results: SLC10A1 (gene SLC10A1, hepatocytes): −0.03
- RNA-seq results: SLC10A3 (gene SLC10A3, hepatocytes): 0.11
- RNA-seq results: SLC10A5 (gene SLC10A5, hepatocytes): 0.18
- RNA-seq results: SLC10A7 (gene SLC10A7, hepatocytes): 0.23
- RNA-seq results: SLC11A2 (gene SLC11A2, hepatocytes): 0.32
- RNA-seq results: SLC19A1 (gene SLC19A1, hepatocytes): −0.21
- RNA-seq results: SLC19A2 (gene SLC19A2, hepatocytes): 0.32
- RNA-seq results: SLC19A3 (gene SLC19A3, hepatocytes): −0.31
- RNA-seq results: SLC22A1 (gene SLC22A1, hepatocytes): −0.22
- RNA-seq results: SLC22A5 (gene SLC22A5, hepatocytes): −0.06
- RNA-seq results: SLC25A1 (gene SLC25A1, hepatocytes): −0.33
- RNA-seq results: SLC25A10 (gene SLC25A10, hepatocytes): −0.31
- RNA-seq results: SLC25A12 (gene SLC25A12, hepatocytes): −0.27
- RNA-seq results: SLC25A13 (gene SLC25A13, hepatocytes): 0.25
- RNA-seq results: SLC25A15 (gene SLC25A15, hepatocytes): −0.09
- RNA-seq results: SLC25A19 (gene SLC25A19, hepatocytes): −0.43
- RNA-seq results: SLC25A20 (gene SLC25A20, hepatocytes): −0.35
- RNA-seq results: SLC25A29 (gene SLC25A29, hepatocytes): −0.13
- RNA-seq results: SLC25A32 (gene SLC25A32, hepatocytes): −0.10
